{"source": "ChEMBL document CHEMBL1201862", "about": "“PubChem BioAssay data set” (2004)", "key": {"Protein RecA": {"biological_target": "T1, Protein RecA (Mycobacterium tuberculosis, UniProt P9WHJ3)", "T1 sequence (P9WHJ3 whole entry)": "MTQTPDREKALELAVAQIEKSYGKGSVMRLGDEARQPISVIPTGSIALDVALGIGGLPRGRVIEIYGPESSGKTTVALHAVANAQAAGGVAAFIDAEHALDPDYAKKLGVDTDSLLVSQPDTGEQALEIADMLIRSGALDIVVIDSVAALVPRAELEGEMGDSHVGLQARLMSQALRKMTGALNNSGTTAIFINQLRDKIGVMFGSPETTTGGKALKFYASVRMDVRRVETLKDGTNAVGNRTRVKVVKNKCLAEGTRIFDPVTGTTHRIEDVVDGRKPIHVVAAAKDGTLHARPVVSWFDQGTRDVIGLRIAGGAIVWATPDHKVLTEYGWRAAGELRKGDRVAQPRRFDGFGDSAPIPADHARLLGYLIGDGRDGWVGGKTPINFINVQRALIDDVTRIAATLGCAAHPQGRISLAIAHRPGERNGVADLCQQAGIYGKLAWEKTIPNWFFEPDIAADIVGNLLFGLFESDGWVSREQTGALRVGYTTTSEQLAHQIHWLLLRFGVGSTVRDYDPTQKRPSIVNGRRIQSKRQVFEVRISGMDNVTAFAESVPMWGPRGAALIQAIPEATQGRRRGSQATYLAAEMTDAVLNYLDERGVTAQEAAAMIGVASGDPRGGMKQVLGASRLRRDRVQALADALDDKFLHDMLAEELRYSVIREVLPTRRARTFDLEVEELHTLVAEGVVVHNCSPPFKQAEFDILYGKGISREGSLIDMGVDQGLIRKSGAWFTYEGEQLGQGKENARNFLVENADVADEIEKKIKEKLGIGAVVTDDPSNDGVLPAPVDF", "experiment": "Fluorescence Cell-Free Homogeneous Dose Retest to Identify Inhibitors of RecA-Intein Splicing Activity. [Related pubchem assays (depositor defined):AID2097, AID2223, AID489010, AID492950]", "assay_type": "functional"}, "[1]": {"experiment": "inhibitors of SNCA 5'UTR-driven reporter translation, confirmation, H4 neuroglioma cells, luminescence (AID 1988)", "assay_type": "functional, cell-based"}, "[2]": {"experiment": "cytotoxicity toward NIH3T3 fibroblasts, dose response, counter-screen, cell-based, ATP luminescence, mouse fibroblasts (AID 2010);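 note: cells exposed to compound for about 90 hours before reading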", "assay_type": "functional"}, "[3]": {"tested_on": "Streptococcus sp. 'group A'", "experiment": "growth inhibition of control SK(-) GAS strain, dose response, counter-screen for streptokinase expression inhibitor project, luminescence, kanamycin, BacTiterGlo, confirmation (AID 1900)", "assay_type": "functional, organism-based"}, "[4]": {"biological_target": "Dual specificity mitogen-activated protein kinase kinase 2 (Homo sapiens, UniProt P36507)", "sequence (P36507 whole entry)": "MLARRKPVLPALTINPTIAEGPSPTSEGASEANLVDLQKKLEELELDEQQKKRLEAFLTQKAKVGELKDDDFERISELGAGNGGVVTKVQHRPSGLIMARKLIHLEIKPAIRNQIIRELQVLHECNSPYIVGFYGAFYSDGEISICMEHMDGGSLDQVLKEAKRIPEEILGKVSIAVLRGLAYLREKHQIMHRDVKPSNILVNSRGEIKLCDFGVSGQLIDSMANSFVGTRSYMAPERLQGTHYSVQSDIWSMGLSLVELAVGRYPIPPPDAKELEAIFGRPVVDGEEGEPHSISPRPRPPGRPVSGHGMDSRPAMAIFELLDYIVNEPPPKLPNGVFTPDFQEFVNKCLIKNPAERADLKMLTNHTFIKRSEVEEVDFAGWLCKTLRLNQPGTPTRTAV", "experiment": "Navigating the Kinome. Panel member name: MAP2K2", "assay_type": "functional"}, "Activin receptor type-1": {"biological_target": "Activin receptor type-1 (Homo sapiens, UniProt Q04771)", "experiment": "Navigating the Kinome. Panel member name: ACVR1", "assay_type": "functional"}, "[5]": {"biological_target": "Dual specificity protein kinase CLK2 (Homo sapiens, UniProt P49760)", "assay_type": "functional"}, "[6]": {"biological_target": "Platelet-derived growth factor receptor alpha (Homo sapiens, UniProt P16234)", "experiment": "Navigating the Kinome. Panel member name: PDGFRA", "assay_type": "functional"}, "[7]": {"biological_target": "Tyrosine-protein kinase receptor TYRO3 (Homo sapiens, UniProt Q06418)", "assay_type": "functional"}, "[8]": {"biological_target": "Mitogen-activated protein kinase 14 (Homo sapiens, UniProt Q16539)", "assay_type": "functional"}, "[9]": {"biological_target": "Macrophage-stimulating protein receptor (Homo sapiens, UniProt Q04912)", "sequence (Q04912 25-304 limits assumed)": "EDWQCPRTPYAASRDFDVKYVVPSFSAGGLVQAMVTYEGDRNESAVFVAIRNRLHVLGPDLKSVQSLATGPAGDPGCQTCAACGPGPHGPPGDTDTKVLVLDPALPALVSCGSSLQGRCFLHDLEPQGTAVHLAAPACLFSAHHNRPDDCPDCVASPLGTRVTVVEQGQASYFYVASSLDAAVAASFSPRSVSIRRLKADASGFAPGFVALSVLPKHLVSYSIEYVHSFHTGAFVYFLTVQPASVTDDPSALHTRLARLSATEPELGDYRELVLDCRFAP", "sequence (Q04912 310-1400 limits assumed)": "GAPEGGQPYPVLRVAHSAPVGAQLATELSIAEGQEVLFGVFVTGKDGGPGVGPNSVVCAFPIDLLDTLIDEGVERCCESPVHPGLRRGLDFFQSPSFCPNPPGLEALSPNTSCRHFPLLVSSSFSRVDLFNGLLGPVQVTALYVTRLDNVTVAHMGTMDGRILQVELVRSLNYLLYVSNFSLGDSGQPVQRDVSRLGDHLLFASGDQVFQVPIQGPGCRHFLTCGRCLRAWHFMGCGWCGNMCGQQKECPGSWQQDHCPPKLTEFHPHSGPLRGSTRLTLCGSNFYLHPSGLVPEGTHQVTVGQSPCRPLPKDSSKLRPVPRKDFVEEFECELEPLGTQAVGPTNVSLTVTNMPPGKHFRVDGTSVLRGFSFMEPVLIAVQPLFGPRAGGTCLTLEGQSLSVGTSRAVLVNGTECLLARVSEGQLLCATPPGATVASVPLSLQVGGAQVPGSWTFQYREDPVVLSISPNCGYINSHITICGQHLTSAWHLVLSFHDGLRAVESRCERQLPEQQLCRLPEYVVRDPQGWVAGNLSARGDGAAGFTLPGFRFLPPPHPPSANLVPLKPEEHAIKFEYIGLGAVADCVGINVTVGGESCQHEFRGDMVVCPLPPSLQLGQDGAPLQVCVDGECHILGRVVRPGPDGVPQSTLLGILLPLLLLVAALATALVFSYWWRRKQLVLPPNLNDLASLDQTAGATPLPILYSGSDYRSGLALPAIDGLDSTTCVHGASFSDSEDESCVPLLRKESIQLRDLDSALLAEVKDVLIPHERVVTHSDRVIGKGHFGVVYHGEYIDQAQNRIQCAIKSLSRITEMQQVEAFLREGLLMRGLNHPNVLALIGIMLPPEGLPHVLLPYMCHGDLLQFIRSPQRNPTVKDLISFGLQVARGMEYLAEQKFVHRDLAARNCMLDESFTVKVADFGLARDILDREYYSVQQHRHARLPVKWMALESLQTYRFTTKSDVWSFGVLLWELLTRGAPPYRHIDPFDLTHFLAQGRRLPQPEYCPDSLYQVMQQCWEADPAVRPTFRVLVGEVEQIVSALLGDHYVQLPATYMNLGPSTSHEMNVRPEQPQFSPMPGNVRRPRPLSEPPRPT", "experiment": "Navigating the Kinome. Panel member name: MST1R", "assay_type": "functional"}, "[10]": {"biological_target": "Macrophage colony-stimulating factor 1 receptor (Homo sapiens, UniProt P07333)", "sequence (P07333 whole entry)": "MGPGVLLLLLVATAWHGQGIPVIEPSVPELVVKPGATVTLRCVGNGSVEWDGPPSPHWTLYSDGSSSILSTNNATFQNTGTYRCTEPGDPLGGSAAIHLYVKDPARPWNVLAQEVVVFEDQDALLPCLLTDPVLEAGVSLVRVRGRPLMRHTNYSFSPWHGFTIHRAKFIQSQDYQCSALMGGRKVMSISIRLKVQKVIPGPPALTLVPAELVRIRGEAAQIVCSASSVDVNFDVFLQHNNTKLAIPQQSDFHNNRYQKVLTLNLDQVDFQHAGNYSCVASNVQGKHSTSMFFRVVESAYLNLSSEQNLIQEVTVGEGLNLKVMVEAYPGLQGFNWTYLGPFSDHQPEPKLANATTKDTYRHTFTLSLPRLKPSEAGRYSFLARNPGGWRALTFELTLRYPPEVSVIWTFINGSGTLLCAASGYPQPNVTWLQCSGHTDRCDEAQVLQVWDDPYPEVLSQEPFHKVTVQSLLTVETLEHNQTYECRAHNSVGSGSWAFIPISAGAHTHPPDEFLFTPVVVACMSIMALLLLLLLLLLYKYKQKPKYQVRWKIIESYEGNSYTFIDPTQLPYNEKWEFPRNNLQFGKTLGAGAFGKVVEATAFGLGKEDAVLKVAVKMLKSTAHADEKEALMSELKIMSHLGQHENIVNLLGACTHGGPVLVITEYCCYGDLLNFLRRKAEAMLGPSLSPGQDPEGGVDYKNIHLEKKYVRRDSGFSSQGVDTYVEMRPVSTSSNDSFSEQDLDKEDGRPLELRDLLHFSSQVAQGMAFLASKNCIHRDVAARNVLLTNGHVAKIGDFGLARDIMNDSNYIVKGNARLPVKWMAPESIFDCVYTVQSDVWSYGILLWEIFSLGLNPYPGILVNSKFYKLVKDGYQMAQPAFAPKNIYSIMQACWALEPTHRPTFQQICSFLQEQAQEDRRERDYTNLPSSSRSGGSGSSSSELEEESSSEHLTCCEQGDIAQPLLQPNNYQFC", "assay_type": "functional"}, "[11]": {"biological_target": "Dual specificity tyrosine-phosphorylation-regulated kinase 1B (Homo sapiens, UniProt Q9Y463)", "sequence (Q9Y463 whole entry)": "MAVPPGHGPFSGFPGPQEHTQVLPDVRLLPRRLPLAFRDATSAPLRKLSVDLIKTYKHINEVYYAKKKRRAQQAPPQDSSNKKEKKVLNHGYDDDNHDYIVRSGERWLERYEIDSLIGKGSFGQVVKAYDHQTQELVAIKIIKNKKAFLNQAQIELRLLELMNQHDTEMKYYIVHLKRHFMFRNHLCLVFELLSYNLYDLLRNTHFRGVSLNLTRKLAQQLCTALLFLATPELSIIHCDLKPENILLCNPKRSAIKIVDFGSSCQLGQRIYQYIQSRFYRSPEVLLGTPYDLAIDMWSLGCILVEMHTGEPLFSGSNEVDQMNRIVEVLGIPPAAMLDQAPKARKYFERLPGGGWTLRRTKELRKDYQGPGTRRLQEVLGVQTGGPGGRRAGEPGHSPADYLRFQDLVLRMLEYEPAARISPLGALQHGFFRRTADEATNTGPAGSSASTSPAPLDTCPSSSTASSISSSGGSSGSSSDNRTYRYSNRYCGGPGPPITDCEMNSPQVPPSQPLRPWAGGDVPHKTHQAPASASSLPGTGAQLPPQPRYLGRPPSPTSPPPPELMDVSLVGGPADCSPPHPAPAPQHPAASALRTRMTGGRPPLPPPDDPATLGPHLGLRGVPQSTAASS", "experiment": "Navigating the Kinome. Panel member name: DYRK1B", "assay_type": "functional"}, "[12]": {"biological_target": "Protein kinase C theta type (Homo sapiens, UniProt Q04759)", "experiment": "Navigating the Kinome. Panel member name: PRKCQ", "assay_type": "functional"}, "[13]": {"biological_target": "Cyclin-dependent kinase 7 (Homo sapiens, UniProt P50613)", "sequence (P50613 whole entry)": "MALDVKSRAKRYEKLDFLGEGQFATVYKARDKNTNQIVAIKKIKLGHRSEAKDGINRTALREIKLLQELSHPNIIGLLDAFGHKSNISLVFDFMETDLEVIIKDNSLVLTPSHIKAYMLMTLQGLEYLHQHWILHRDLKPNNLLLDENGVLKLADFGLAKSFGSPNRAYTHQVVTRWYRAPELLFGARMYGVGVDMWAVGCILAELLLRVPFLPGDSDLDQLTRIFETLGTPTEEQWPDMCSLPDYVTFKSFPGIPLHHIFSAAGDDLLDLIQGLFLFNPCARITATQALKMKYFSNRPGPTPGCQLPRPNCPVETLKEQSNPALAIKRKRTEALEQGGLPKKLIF", "assay_type": "functional"}, "[14]": {"biological_target": "Serine/threonine-protein kinase Chk1 (Homo sapiens, UniProt O14757)", "assay_type": "functional"}, "[15]": {"biological_target": "Mitogen-activated protein kinase 9 (Homo sapiens, UniProt P45984)", "sequence (P45984 whole entry)": "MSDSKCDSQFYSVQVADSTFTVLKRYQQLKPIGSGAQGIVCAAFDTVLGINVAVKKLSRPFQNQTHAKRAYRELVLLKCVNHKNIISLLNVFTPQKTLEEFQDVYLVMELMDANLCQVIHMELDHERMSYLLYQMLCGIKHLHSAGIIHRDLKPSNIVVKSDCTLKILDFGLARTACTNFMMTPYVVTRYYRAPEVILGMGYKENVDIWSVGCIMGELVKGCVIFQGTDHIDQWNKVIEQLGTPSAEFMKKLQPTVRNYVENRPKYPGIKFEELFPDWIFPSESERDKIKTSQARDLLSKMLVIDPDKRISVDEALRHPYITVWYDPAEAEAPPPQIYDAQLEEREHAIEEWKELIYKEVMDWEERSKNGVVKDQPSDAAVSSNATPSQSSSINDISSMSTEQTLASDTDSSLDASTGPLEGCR", "assay_type": "functional"}, "[16]": {"biological_target": "Serine/threonine-protein kinase pim-1 (Homo sapiens, UniProt P11309)", "sequence (P11309 whole entry)": "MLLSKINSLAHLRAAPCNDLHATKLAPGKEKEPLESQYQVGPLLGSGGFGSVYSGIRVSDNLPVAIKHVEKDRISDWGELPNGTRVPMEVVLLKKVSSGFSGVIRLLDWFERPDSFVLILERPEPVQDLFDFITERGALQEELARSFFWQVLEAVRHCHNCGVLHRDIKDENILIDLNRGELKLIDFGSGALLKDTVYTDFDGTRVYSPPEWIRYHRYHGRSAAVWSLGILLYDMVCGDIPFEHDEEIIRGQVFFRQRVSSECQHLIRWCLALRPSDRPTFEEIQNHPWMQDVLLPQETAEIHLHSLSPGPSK", "assay_type": "functional"}, "[17]": {"biological_target": "Cyclin-dependent kinase 9 (Homo sapiens, UniProt P50750)", "assay_type": "functional"}, "Estrogen receptor": {"biological_target": "T2, Estrogen receptor (Homo sapiens, UniProt P03372)", "T2 sequence (P03372 whole entry)": "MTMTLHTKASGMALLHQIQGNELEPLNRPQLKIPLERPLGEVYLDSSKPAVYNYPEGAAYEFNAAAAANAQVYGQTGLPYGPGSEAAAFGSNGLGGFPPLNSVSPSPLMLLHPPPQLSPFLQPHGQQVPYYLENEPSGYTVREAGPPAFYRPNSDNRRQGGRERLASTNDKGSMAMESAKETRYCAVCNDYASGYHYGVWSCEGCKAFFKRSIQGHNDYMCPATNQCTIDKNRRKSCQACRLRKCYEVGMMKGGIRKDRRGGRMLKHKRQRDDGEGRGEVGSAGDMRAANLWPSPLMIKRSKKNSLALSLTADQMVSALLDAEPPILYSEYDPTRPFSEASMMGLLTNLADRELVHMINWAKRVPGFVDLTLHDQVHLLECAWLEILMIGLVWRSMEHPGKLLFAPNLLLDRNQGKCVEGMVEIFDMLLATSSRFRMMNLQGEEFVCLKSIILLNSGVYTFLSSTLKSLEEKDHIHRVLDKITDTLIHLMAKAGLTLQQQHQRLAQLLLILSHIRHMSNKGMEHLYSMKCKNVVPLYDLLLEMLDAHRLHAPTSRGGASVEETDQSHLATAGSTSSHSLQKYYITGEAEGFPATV"}, "Estrogen receptor beta": {"biological_target": "Estrogen receptor beta (Homo sapiens, UniProt Q92731)", "sequence (Q92731 whole entry)": "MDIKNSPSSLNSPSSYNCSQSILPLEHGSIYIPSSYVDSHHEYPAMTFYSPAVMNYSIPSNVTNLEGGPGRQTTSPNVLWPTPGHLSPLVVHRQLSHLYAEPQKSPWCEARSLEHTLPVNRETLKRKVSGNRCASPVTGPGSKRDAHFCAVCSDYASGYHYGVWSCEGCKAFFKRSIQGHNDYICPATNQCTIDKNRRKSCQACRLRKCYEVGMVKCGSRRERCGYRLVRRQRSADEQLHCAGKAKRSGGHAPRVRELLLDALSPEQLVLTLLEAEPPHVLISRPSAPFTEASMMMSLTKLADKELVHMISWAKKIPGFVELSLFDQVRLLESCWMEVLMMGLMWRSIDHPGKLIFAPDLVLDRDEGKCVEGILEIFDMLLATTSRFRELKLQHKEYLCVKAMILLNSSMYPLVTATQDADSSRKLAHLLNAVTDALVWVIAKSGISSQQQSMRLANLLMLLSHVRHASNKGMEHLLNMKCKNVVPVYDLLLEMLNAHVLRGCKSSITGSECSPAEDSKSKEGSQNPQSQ"}, "Caspase-3": {"biological_target": "T3, Caspase-3 (Homo sapiens, UniProt P42574)", "T3 sequence (P42574 whole entry)": "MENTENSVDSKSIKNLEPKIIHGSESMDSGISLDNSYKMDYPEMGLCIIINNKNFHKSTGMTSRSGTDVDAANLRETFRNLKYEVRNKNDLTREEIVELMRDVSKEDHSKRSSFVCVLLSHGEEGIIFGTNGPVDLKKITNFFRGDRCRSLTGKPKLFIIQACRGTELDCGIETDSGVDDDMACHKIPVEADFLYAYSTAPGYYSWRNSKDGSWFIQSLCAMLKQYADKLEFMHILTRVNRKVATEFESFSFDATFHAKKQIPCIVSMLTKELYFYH", "assay_type": "functional"}}, "note": "The source made the active and inactive calls."}
{"smiles": "CN1CCN(C(c2ccc(C(F)(F)F)cc2)c2cc(Cl)c3cccnc3c2O)CC1", "note": "(configuration not stated)", "values": [{"measurement": "EC50", "setting": "Protein RecA", "result": "0.932 µM (active)"}, {"measurement": "EC50", "setting": "[1]", "result": "8.87 µM (active)"}, {"measurement": "EC50", "setting": "[2]", "result": "6.54 µM (active)"}, {"measurement": "EC50", "setting": "[3]", "result": "0.558 µM (active)"}]}
{"smiles": "O=C(NC(CCO)c1ccccc1)c1ccc(-c2ccncc2)cc1", "note": "(configuration not stated)", "values": [{"measurement": "Ki", "setting": "[4]", "result": "> 3.98 µM (inactive)"}, {"measurement": "Ki", "setting": "Activin receptor type-1", "result": "> 3.98 µM (inactive)"}, {"measurement": "Ki", "setting": "[5]", "result": "> 3.98 µM (inactive)"}, {"measurement": "Ki", "setting": "[6]", "result": "> 2.51 µM (inactive)"}, {"measurement": "Ki", "setting": "[7]", "result": "> 3.16 µM (inactive)"}, {"measurement": "Ki", "setting": "[8]", "result": "> 3.98 µM (inactive)"}, {"measurement": "Ki", "setting": "[9]", "result": "> 3.98 µM (inactive)"}, {"measurement": "Ki", "setting": "[10]", "result": "> 2.51 µM (inactive)"}, {"measurement": "Ki", "setting": "[11]", "result": "> 2.51 µM (inactive)"}, {"measurement": "Ki", "setting": "[12]", "result": "1.58 µM (active)"}, {"measurement": "Ki", "setting": "[13]", "result": "> 3.98 µM (inactive)"}, {"measurement": "Ki", "setting": "[14]", "result": "> 3.16 µM (inactive)"}, {"measurement": "Ki", "setting": "[15]", "result": "> 3.98 µM (inactive)"}, {"measurement": "Ki", "setting": "[16]", "result": "> 6.31 µM (inactive)"}, {"measurement": "Ki", "setting": "[17]", "result": "> 1.58 µM (inactive)"}]}
{"smiles": "NC(=O)c1c(NC(=O)c2cc3ccccc3o2)sc2c1CCC2", "values": [{"measurement": "IC50", "setting": "Estrogen receptor", "result": "23.5 µM (active)"}, {"measurement": "IC50", "setting": "Estrogen receptor beta", "result": "> 50 µM (not active)"}, {"measurement": "IC50", "setting": "Caspase-3", "result": "15.1 µM (active)"}]}
